Test results published in ChEMBL document CHEMBL4765257, “Synthesis and structure-activity relationship study of pyrrolidine-oxadiazoles as anthelmintics against Haemonchus contortus” (Eur J Med Chem, 2020).

Assays:
MCF-10A = assay: Cytotoxicity against human MCF-10A cells assessed as inhibition of cell viability measured after 48 hrs by DAPI staining based analysis
Haemonchus contortus [1] = assay: Anti-helmintic activity against fourth stage of Haemonchus contortus larvae assessed as reduction in development of L4 stage incubated for 72 hrs followed by reincubation in humidified environment for 4 days; assay type: functional, organism-based
Haemonchus contortus [2] = assay: Anti-helmintic activity against third-stage Haemonchus contortus larvae assessed as inhibition of xL3 motility measured after 72 hrs; assay type: functional, organism-based
[3] = Cytotoxicity against human MCF-10A cells assessed as inhibition of cell viability at 50 uM measured after 48 hrs by DAPI staining based analysis; conditions: read-out: INH
[4] = Haemonchus contortus, 72 h, read-out: IC50

Row | SMILES | IC50 (MCF-10A) | IC50 (Haemonchus contortus [1]) | IC50 (Haemonchus contortus [2]; [4]) | cytotoxicity at 48 h, 50 µM [3] | IC50 (Haemonchus contortus [2])
1 | O=C(Nc1ccc(Cl)cc1)N1CCC[C@H]1c1nc(-c2cccc(Cl)c2)no1 | > 50 µM | 7.6 µM | 3 µM | 17% | –
2 | O=C(Nc1ccc(Cl)cc1)N1CCC[C@H]1c1nc(-c2ccc(Cl)cc2)no1 | > 50 µM | 20 µM | 1.5 µM | 22% | –
3 | N#Cc1ccccc1NC(=O)N1CCC[C@H]1c1nc(-c2ccccc2)no1 | – | > 100 µM | > 100 µM | – | –
4 | O=C(Nc1ccc(Cl)cc1)N1CCC[C@H]1c1nc(-c2cccc(Br)c2)no1 | > 50 µM | > 100 µM | 1.1 µM | 20% | –
5 | COc1cccc(NC(=O)N2CCC[C@H]2c2nc(-c3ccccc3)no2)c1 | – | > 100 µM | > 100 µM | – | –
6 | O=C(Nc1ccc(Cl)cc1)N1CCC[C@H]1c1nc(-c2ccccc2Br)no1 | > 50 µM | 22 µM | 12 µM | 30% | –
7 | Cc1ccccc1-c1noc([C@@H]2CCCN2C(=O)Nc2ccc(Cl)cc2)n1 | > 50 µM | 50 µM | 0.78 µM | 36% | –
8 | N#Cc1ccc(-c2noc([C@@H]3CCCN3C(=O)Nc3ccc(Cl)cc3)n2)cc1 | > 50 µM | > 100 µM | > 100 µM | 11% | –
9 | CC(=O)c1cccc(NC(=O)N2CCC[C@H]2c2nc(-c3ccccc3)no2)c1 | – | > 100 µM | > 100 µM | – | –
10 | Cc1cccc(-c2noc([C@@H]3CCCN3C(=O)Nc3ccc(Cl)cc3)n2)c1 | > 50 µM | > 100 µM | 1.9 µM | 29% | –
11 | O=C(Nc1cccc(Br)c1)N1CCC[C@H]1c1nc(-c2ccccc2)no1 | – | > 100 µM | > 100 µM | – | –
12 | O=C(Nc1ccc(Cl)cc1)N1CCC[C@H]1c1nc(-c2ccc(F)cc2)no1 | > 50 µM | 19 µM | 1.3 µM | 22% | –
13 | CN(C)S(=O)(=O)c1ccc(NC(=O)N2CCC[C@H]2c2nc(-c3ccccc3)no2)cc1 | – | > 100 µM | > 100 µM | – | –
14 | O=C(Nc1ccccc1F)N1CCC[C@H]1c1nc(-c2ccccc2)no1 | – | > 100 µM | > 100 µM | – | –
15 | O=C(Nc1ccc(I)cc1)N1CCC[C@H]1c1nc(-c2ccccc2)no1 | > 50 µM | 3.2 µM | 5.6 µM | 8% | –
16 | O=C(Nc1ccc(Cl)cc1)N1CCC[C@H]1c1nc(-c2cccc(O)c2)no1 | > 50 µM | 22.4 µM | 0.78 µM | 32% | –
17 | CC(=O)c1ccc(NC(=O)N2CCC[C@H]2c2nc(-c3ccccc3)no2)cc1 | – | > 100 µM | > 100 µM | – | –
18 | CC(C)c1ccc(NC(=O)N2CCC[C@H]2c2nc(-c3ccccc3)no2)cc1 | – | > 100 µM | > 100 µM | – | –
19 | N#Cc1cccc(-c2noc([C@@H]3CCCN3C(=O)Nc3ccc(Cl)cc3)n2)c1 | > 50 µM | > 100 µM | > 100 µM | 16% | –
20 | COc1ccccc1-c1noc([C@@H]2CCCN2C(=O)Nc2ccc(Cl)cc2)n1 | – | > 100 µM | > 100 µM | – | –
21 | O=C(Nc1ccc(Cl)cc1)N1CCC[C@H]1c1nc(-c2cccc(F)c2)no1 | > 50 µM | 18 µM | 8.1 µM | 22% | –
22 | O=C(Nc1ccc([N+](=O)[O-])cc1)N1CCC[C@H]1c1nc(-c2ccccc2)no1 | > 50 µM | 50 µM | 50 µM | 22% | –
23 | O=C(Nc1ccc(Cl)cc1)N1CCC[C@H]1c1nc(-c2ccccc2F)no1 | > 50 µM | > 100 µM | – | 30% | Active
24 | O=C(Nc1ccccc1Cl)N1CCC[C@H]1c1nc(-c2ccccc2)no1 | – | > 100 µM | > 100 µM | – | –
25 | O=C(Nc1ccc(Cl)cc1)N1CCC[C@H]1c1nc(-c2ccccc2O)no1 | – | > 100 µM | > 100 µM | – | –
26 | O=C(Nc1ccccc1)N1CCC[C@H]1c1nc(-c2ccccc2)no1 | – | > 100 µM | > 100 µM | – | –
27 | O=C(Nc1cccc(F)c1)N1CCC[C@H]1c1nc(-c2ccccc2)no1 | – | > 100 µM | > 100 µM | – | –
28 | O=C(Nc1ccc(Cl)cc1)N1CCC[C@H]1c1nc(-c2ccccc2Cl)no1 | > 50 µM | 20 µM | 9.2 µM | 40% | –
29 | CS(=O)(=O)c1ccc(NC(=O)N2CCC[C@H]2c2nc(-c3ccccc3)no2)cc1 | – | > 100 µM | > 100 µM | – | –
30 | C[C@](C#N)(COc1cc(C#N)ccc1C(F)(F)F)NC(=O)c1ccc(SC(F)(F)F)cc1 [MONEPANTEL] | 26.9 µM | 0.075 µM | 0.16 µM | 99% | –
